ChEMBL document CHEMBL1130732, “Homologated aza analogs of arabinose as antimycobacterial agents” (1998)
≈ marks a conversion by molar mass, not a printed value. Calls of active or inactive are those of the source. No cut-off for these calls is given here.

What was measured:
[1] = tested on: Mycobacterium avium; assay: Anti-MAC activity against Mycobacterium avium macrophage was determined; assay type: functional
[2] = tested on: Mycobacterium tuberculosis; assay: Minimum inhibitory concentration against Mycobacterium tuberculosis H37Ra; assay type: functional
[3] = tested on: Mycobacterium tuberculosis; assay: Percent inhibition of compound against Mycobacterium tuberculosis H37Ra at 12.5 ug/mL concentration in BACTEC assay; assay type: functional
[4] = tested on: Mycobacterium avium; assay: Anti-MAC activity against Mycobacterium avium macrophage; I means inactive in macrophages; assay type: functional, organism-based
[5] = tested on: Mycobacterium tuberculosis; assay: Minimum inhibitory concentration against Mycobacterium tuberculosis H37Ra; value ranges from […] ug/mL; assay type: functional
[6] = tested on: Mycobacterium avium; assay: Anti-MAC activity against Mycobacterium avium macrophage; cytotoxic to macrophages; assay type: functional, organism-based
[7] = tested on: Mycobacterium tuberculosis; assay: Minimum inhibitory concentration against Mycobacterium tuberculosis H37Ra; partial inhibition at 128 ug/mL; assay type: functional
[8] = tested on: Mycobacterium tuberculosis; assay: Minimum inhibitory concentration against Mycobacterium tuberculosis H37Ra; value ranges from 32-128 ug/mL; assay type: functional
[9] = tested on: Mycobacterium tuberculosis; assay: Minimum bactericidal concentration against Mycobacterium tuberculosis H37Ra; assay type: functional
[10] = tested on: Mycobacterium tuberculosis; assay: Minimum inhibitory concentration against Mycobacterium tuberculosis H37Ra; […]; assay type: functional
[11] = tested on: Mycobacterium tuberculosis; assay: Minimum bactericidal concentration against Mycobacterium tuberculosis H37Ra; value ranges from 64->128 ug/mL; assay type: functional
[12] = tested on: Mycobacterium tuberculosis; assay: Minimum inhibitory concentration against Mycobacterium tuberculosis H37Ra; value ranges from 16-32 ug/mL; assay type: functional
[13] = tested on: Mycobacterium tuberculosis; assay: Minimum inhibitory concentration against Mycobacterium tuberculosis H37Ra; value ranges from 16-64 ug/mL; assay type: functional
[14] = tested on: Mycobacterium tuberculosis; assay: Minimum inhibitory concentration against Mycobacterium tuberculosis H37Ra; value ranges from >12.8-<=128 ug/mL; assay type: functional

In the case of `OC[C@H]1O[C@@H](CSc2ccccc2)[C@H](O)[C@@H]1O`, the Activity [1] is reported as over 64 µg/mL and the MIC [2] is reported as over 128 µg/mL.

Work on `OCC1NC(CSCc2ccccc2)C(O)C1O` (stereo not given) yielded an MIC [2] of over 128 µg/mL.

`OCC1NC(CSc2ccccc2)C(O)C1O` (stereo not given) gave an Activity [1] of 4 µg/mL, an inhibition at 12.5 µg/mL [3] of 0% and an MIC [2] of over 128 µg/mL.

For `[O-][S+](CC1NC(CO)C(O)C1O)c1ccccc1` (stereo not given), the inhibition at 12.5 µg/mL [3] was 18%, the MIC [2] was over 128 µg/mL and the Activity [4] was “inactive”.

`CC(C)=CCC/C(C)=C\CSCC1NC(CO)C(O)C1O` (stereo not given) was tested, and the MIC [5] was 64 µg/mL (≈ 203 µM) and the Activity [6] was “Cytotoxic”.

`COc1ccccc1SCC1NC(CO)C(O)C1O` (stereo not given) was tested, and the MIC [2] was over 128 µg/mL.

For `O=S(=O)(CC1NC(CO)C(O)C1O)c1ccccc1` (stereo not given), the inhibition at 12.5 µg/mL [3] was 6%, the MIC [2] was over 128 µg/mL and the Activity [4] was “inactive”.

`OCC1NC(CSc2ccc3ccccc3c2)C(O)C1O` (stereo not given) was tested, and the inhibition at 12.5 µg/mL [3] was 18% and the MIC [7] was over 128 µg/mL.

Work on `CCCCCCCCCCSCC1NC(CO)C(O)C1O` (stereo not given) yielded an MIC [8] of 32 µg/mL (≈ 100 µM) and an MBC [9] of at least 128 µg/mL.

`CCCCCCCCCCCC[S+]([O-])CC1NC(CO)C(O)C1O` (stereo not given) was tested, and the MBC [9] was at least 128 µg/mL and the MIC [10] was 32 µg/mL (≈ 88 µM).

`N#Cc1ccc(SCC2NC(CO)C(O)C2O)cc1` (stereo not given) showed an inhibition at 12.5 µg/mL [3] of 5% and an MIC [2] of over 128 µg/mL.

`COc1ccc(SCC2NC(CO)C(O)C2O)cc1` (stereo not given) was tested, and the MIC [2] was over 128 µg/mL.

For `CCCCCCCCCCCCSCC1NC(CO)C(O)C1O` (stereo not given), the MBC [11] was 64 µg/mL (≈ 184 µM), the Activity [6] was “Cytotoxic” and the MIC [12] was 16 µg/mL (≈ 46 µM).

`CCCCCCCCCCCCCCCCSCC1NC(CO)C(O)C1O` (stereo not given) was tested, and the MBC [11] was 64 µg/mL (≈ 159 µM) and the MIC [13] was 16 µg/mL (≈ 39.6 µM).

`CCCCCCCCCCCCS(=O)(=O)CC1NC(CO)C(O)C1O` (stereo not given) was tested, and the MIC [8] was 32 µg/mL (≈ 84.3 µM), the MBC [9] was at least 128 µg/mL and the Activity [6] was “Cytotoxic”.

In the case of `OCC1NC(CSc2ccncc2)C(O)C1O` (stereo not given), the inhibition at 12.5 µg/mL [3] is reported as 6% and the MIC [2] is reported as over 128 µg/mL.

With `CCCCCCCCCCCCS(=O)(=O)C[C@H]1NC(CO)C(O)C1O` (stereo not given in full) the MIC [14] was over 12.8 µg/mL.
